In US20160221974A1, “SODIUM CHANNEL MODULATORS FOR THE TREATMENT OF PAIN AND DIABETES” (CHROMOCELL CORPORATION, priority 2013, published 2016):

Experiments:
[1] = test system: Formalin Test (pain behaviors); test: Formalin Test (pain behaviors); type: in vivo, rat; conditions: relative to vehicle control
NaV1.7 = target: T1, NaV1.7 (Homo sapiens, UniProt Q15858); test: Patchliner Electrophysiological In-Vitro Assay (NaV1.7); type: cell-based; conditions: Patchliner patch clamp, HEK293, holding at V1/2
T1 construct: expressed in transfected cells
T1 sequence (Q15858 whole entry): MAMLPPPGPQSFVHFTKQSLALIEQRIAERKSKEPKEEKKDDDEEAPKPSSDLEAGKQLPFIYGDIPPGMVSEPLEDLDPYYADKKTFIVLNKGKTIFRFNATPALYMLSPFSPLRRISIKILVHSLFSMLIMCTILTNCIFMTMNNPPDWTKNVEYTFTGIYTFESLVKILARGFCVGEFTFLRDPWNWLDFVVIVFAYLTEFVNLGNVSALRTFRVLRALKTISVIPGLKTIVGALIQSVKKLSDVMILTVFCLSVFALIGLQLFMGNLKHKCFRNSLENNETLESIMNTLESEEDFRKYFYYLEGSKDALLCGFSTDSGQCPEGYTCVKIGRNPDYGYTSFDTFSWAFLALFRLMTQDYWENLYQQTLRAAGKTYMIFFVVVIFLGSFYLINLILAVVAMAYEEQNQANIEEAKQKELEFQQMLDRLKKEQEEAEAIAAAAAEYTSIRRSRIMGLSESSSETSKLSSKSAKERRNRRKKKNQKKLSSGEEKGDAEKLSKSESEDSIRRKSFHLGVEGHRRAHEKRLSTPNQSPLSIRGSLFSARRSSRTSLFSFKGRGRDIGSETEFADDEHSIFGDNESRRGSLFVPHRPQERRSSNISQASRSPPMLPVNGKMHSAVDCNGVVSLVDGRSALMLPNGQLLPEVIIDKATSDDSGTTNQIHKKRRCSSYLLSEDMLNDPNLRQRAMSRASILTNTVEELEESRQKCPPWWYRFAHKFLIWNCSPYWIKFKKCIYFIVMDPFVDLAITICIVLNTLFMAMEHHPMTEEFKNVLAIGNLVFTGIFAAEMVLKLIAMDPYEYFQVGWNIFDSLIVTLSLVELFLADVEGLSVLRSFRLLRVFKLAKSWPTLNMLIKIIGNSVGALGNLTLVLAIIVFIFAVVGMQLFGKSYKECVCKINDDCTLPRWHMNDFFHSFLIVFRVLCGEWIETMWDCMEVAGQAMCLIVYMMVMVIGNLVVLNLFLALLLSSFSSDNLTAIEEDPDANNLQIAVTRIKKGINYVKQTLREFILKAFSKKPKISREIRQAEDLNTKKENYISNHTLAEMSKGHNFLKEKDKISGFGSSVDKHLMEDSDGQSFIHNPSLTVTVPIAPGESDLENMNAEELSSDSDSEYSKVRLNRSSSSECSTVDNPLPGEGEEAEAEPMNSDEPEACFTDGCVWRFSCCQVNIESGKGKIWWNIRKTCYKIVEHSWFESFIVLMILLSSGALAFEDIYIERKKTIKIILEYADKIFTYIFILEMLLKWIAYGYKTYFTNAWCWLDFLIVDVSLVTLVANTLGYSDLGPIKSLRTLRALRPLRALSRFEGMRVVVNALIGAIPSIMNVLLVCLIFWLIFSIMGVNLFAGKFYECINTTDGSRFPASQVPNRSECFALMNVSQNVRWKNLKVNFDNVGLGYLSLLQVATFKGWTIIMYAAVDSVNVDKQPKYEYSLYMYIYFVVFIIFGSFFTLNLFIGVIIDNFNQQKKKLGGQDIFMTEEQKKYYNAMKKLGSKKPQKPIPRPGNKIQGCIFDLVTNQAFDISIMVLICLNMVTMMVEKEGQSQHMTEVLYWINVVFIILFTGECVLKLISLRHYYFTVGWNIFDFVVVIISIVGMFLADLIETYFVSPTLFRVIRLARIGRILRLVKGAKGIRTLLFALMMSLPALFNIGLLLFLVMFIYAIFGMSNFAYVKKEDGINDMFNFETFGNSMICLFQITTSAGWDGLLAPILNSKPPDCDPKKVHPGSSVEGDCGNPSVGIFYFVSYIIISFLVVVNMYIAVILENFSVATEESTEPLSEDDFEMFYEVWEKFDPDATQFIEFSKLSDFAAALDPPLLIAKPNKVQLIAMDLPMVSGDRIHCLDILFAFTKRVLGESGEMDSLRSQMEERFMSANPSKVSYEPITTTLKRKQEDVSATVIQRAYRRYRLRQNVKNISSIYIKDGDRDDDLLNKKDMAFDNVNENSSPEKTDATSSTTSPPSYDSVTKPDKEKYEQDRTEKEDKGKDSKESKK
T1 sequence (Q07699 19-218 partner): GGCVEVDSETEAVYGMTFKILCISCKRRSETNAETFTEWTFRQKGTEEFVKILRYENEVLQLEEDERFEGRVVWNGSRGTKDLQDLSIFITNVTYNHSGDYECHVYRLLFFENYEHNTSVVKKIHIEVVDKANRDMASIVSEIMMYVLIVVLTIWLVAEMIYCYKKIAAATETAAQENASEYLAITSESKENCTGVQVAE
T1 sequence (O60939 30-215 partner): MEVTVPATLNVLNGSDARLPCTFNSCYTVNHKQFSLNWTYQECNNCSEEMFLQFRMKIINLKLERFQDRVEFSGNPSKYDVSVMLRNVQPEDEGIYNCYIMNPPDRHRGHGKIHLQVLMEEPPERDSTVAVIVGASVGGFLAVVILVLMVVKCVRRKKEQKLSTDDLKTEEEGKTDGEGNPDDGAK
Experimental: In vitro assays were performed in recombinant cell line that stably express a heterotrimeric protein of interest from an introduced nucleic acid encoding the alpha subunit (hNav1.7, SCN9A), the beta subunit (SCNB1) and the beta subunit (SCNB2). The cell line was engineered using Human Embryonic Kidney 293 cells as host background. Additional cell lines stably expressing recombinant Nav1.7 or Nav1.5 alpha subunit alone or in combination with various beta subunits can also be used in in-vitro assays.
(§1) The recording of sodium current from stable HEK293 cell lines expressing NaV1.7 or NaV1.5 was done on a Patchliner® instrument, Nanion Technologies. The Patchliner® is a fully automated bench-top patch clamp platform and can record simultaneously from up to eight single cells with GΩ seals.
(§2) For patch-clamp experiments, cells were grown under standard culturing conditions in Dulbecco's Modified Eagles medium supplemented with 10% fetal bovine serum, glutamine and HEPES. Cells were harvested and kept in suspension for up to 4 hours with no significant change in quality or ability to patch. Whole cell patch clamp recordings were conducted according to Nanion's standard procedure for the Patchliner®. Experiments were conducted at room temperature.
(§3) Voltage protocols were designed to establish: 1) peak current amplitude (Imax), 2) test potential (Vmax) and 3) half-inactivation potential (V1/2) for each of the eight individual cells. To determine V1/2, a standard steady-state inactivation protocol was executed using a series of fifteen 500 ms depolarizing pre-pulses in 10 mV increments (starting at −130 mV) and immediately followed by a 10 ms test pulse to Vmax. To estimate test compound affinity to the inactivated state of sodium channel (Ki), the holding potential for each cell was set automatically to the V1/2 calculated from a steady-state inactivation data. The current was activated with the following voltage protocol: holding at V1/2 for 2-5 seconds, return to the −120 mV for 5-10 ms to relieve fast inactivation, stepping to test potential (Vmax) for 10-20 ms. This voltage protocol was repeated every 10 seconds to establish the baseline with 2-3 buffer additions followed by the test compound addition. The dose-dependent inhibition was analyzed using Nanion's Data Analysis Package.

CYP3A4 = target: T2, CYP3A4 (Homo sapiens, UniProt P08684); test: In-Vitro Cytochrome P450 (CYP450) Inhibition Assay (Vivid CYP450); type: in vitro ADME; conditions: CYP3A4 enzyme complex (Vivid CYP450, Invitrogen), 6 μM test concentration
T2 construct: purchased Invitrogen
T2 sequence (P08684 2-503 limits assumed): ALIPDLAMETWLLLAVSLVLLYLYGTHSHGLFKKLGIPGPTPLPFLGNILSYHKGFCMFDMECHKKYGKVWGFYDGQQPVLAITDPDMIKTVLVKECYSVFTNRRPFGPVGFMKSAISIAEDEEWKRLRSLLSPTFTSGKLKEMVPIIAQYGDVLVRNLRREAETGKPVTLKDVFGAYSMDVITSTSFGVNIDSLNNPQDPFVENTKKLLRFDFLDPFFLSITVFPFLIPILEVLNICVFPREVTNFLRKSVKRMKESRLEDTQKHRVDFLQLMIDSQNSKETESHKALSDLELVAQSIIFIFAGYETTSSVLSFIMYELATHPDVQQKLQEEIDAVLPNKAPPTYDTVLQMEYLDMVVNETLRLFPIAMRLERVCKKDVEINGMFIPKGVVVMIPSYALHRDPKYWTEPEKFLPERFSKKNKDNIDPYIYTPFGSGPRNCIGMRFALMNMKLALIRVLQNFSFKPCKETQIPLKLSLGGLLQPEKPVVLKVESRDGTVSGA
Experimental: We evaluated interaction of drug candidates with cytochrome P450 enzymes which are a major determinant of drug clearance via oxidative metabolism using a high throughput compatible, fluorescence based CYP450 screening assay (Vivid® CYP450, Invitrogen) according to manufacturer's directions.
In brief, test compounds at four different concentrations (μM—6.0, 2.0, 0.7, 0.2), a positive control (Ketoconazole) and a solvent control were incubated at room temperature in unique wells of a 96-well microtiter plate with CYP3A4 enzyme complex for 20 minutes. A pre-read fluorescence (Ex−485 nm/Em−530 nm) was measured at the start of the incubation using a Tecan Safire^2 microplate reader-monochromator to determine background fluorescence. At the end of the incubation period, enzyme substrate and co-enzyme were added and the reaction was kinetically monitored for 1 hour by measuring fluorescence every minute. Effect of test compounds on inhibition of CYP3A4 metabolism of provided substrate was determined by calculating the ratio of the effective reaction rate in presence of test compound to that in the absence of inhibitor.

[2] = test system: Partial Sciatic Nerve Ligation (PSNL) model; test: Partial Sciatic Nerve Ligation (PSNL) model, behavioral tests; type: in vivo, male Sprague-Dawley rats
Source text: 250-350 g male Sprague-Dawley rats from appropriate animal resources were anesthetized with 2.5% isoflurane. A hind leg was shaved, and the skin was sterilized with 0.5% iodine and 75% alcohol. All surgical instruments were sterilized before surgery and between animals. An incision (1 cm) was made at the middle of the thigh in parallel with the muscle and sciatic nerve distribution. The muscle was exposed and dissected at the joint of two muscles (biceps femoris) indicated by the light colored (white) fascia line. The sciatic nerve was just beneath the muscle and was hooked out using an 18-20 G feeding needle (90 degree curved); the sciatic nerve was flat on the feeding needle and approximately one-half the diameter of the nerve is tightly ligated with 7-0 silk suture. A response of the injured leg twitch indicates the success of ligation. After checking hemostasis, bupivicaine 0.1-0.2 ml (0.125%) was given at the incision area, the muscle and the adjacent fascia are closed with 5-0 absorbable sutures. The skin was sutured with absorbable suture and tissue glue. The control group using sham surgery animals (about 8-10 animals) underwent the same surgical procedure but with no nerve ligation. Animals were returned to their home cage after recovery from anesthesia.
The analgesic effect of the test compound was expressed as a percent recovery (% Recovery) relative to the sham control group baseline and calculated according to the formula:
% Recovery=100%−{[(sham mean−test compound mean)/(sham mean−vehicle mean)]×100%}
wherein “sham mean” refers to average score in the sham-operated group; “test compound mean” refers to average score in the PSNL-group (animals with partial sciatic nerve ligation) or diabetic group (animals treated with STZ) treated with a test compound; “vehicle mean” refers to average score in the PSNL-group or diabetic group treated with vehicle only. The above formula was used to obtain data for the following in vivo behavioral tests.
The following behavioral tests were conducted (i.e., plantar test, paw pressure test, and von Frey test) started on day 3 and thereafter once weekly following surgery or use of a diabetic inducer. […]
(§4) Rats were placed on the glass surface of a thermal testing apparatus (Model 336, IITC/Life Science Instruments, Woodland Hills, Calif.) and were allowed to acclimate for 10 min before testing on the glass surface at room temperature. […] The paw withdrawal latency was recorded by a digital timer. The thermal threshold was determined as the mean withdrawal latency from two to three consecutive trials of both hindpaws. […]
Animals were placed under clear plastic boxes above a wire mesh floor, which allowed full access to the paws. […] Mechanical paw withdrawal thresholds (PWTs) were measured with the up-down testing paradigm. […]

hNaV1.7 = target: T3, hNaV1.7 (Homo sapiens, UniProt Q15858); test: FDSS Membrane Potential In-Vitro Assay; type: cell-based; conditions: stimulation with veratridine and scorpion venom, read-out: NaV1.7 IC50
T3 construct: expressed in transfected cells
T3 sequence (Q15858 whole entry): as the sequence (Q15858 whole entry) above
T3 sequence (Q07699 19-218 partner): as the sequence (Q07699 19-218 partner) above
T3 sequence (O60939 30-215 partner): as the sequence (O60939 30-215 partner) above

[3] = test system: streptozotocin (STZ)-induced diabetic model; test: Streptozotocin (STZ)-Induced Model of Diabetic Neuropathy, behavioral tests; type: in vivo, male Sprague-Dawley rats; conditions: 30 mg/kg, measured 30 minutes post dose
Experimental: 250-350 g male Sprague-Dawley rats from appropriate animal resources were used. Type I diabetes was induced by a single injection, (intraperitoneally, intravenously or intramuscularly) of 50-100 mg/kg of streptozotocin (STZ, Sigma Chemicals, St. Louis, Mo. or VWR) freshly dissolved in sodium citrate (0.01 M, pH 4.5). Sham animals were given either saline or same vehicle injection. Following a wait time of about two days, inducement of diabetes was confirmed in STZ-injected rats by measuring the plasma glucose concentrations in blood samples from the tail vein after a fast of 6 hours. […] Other parameters (water intake, food intake, and bodyweight) were monitored before the treatment with a test compound and after the cessation of the treatment.
The analgesic effect of the test compound was expressed as a percent recovery (% Recovery) relative to the sham control group baseline and calculated according to the formula: […]
as §4

NaV1.5 = target: T4, NaV1.5 (Homo sapiens, UniProt Q14524); test: Patchliner Electrophysiological In-Vitro Assay (NaV1.5); type: cell-based; conditions: Patchliner patch clamp, HEK293
T4 construct: expressed in transfected cells
T4 sequence (Q14524 whole entry): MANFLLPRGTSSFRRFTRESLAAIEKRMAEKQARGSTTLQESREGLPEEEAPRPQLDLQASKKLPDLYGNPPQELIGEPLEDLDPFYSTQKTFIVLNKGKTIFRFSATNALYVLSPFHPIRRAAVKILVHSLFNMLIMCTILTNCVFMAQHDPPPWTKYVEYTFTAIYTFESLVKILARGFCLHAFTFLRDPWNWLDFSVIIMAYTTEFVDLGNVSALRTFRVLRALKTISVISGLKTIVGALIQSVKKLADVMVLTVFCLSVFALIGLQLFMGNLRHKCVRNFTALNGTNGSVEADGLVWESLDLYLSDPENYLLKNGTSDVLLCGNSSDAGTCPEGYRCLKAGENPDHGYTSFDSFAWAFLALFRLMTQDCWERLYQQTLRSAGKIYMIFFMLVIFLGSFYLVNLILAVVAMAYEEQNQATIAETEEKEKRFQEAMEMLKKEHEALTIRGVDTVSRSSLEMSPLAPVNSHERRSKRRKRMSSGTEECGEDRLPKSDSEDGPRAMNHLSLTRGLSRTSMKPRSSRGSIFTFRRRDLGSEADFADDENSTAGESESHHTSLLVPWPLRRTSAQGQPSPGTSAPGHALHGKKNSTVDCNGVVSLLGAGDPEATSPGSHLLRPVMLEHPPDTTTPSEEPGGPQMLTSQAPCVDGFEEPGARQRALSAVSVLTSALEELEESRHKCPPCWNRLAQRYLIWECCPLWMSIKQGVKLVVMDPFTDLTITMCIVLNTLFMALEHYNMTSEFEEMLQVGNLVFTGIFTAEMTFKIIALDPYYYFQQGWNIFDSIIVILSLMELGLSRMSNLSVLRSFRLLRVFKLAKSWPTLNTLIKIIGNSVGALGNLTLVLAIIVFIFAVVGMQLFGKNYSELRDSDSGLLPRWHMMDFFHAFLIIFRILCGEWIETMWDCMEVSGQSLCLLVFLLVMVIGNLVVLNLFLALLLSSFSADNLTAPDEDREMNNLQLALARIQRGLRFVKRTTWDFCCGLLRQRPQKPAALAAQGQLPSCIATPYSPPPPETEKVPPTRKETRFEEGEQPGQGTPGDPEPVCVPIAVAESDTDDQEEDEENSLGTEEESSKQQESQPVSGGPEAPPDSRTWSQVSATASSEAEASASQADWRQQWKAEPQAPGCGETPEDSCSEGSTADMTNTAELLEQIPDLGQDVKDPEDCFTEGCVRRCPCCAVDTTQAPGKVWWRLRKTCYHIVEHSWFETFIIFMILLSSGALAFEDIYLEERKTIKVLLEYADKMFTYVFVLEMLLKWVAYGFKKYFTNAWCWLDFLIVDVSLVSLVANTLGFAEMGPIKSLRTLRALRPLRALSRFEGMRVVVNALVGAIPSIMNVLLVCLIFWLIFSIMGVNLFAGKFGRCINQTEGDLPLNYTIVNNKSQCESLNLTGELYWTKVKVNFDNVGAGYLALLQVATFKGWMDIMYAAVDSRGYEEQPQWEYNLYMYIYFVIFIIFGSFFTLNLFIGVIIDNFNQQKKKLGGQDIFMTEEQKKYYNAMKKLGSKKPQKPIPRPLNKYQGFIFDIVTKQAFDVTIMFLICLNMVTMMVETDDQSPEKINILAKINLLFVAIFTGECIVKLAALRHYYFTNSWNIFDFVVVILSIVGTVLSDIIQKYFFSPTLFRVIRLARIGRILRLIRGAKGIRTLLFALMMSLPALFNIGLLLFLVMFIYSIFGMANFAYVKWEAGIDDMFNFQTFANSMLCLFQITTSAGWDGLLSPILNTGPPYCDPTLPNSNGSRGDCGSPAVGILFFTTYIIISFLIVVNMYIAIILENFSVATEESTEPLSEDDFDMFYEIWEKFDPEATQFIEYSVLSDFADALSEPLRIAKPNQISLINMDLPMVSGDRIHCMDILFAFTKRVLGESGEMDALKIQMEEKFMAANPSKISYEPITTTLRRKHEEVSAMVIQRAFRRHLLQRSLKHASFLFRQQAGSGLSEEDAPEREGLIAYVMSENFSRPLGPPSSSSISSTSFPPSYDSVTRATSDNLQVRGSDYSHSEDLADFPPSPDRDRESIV
Experimental: as §1, §2, §3

[4] = 150 μL of 1 or 2% w/v solution, topical route

Structure (SMILES) | IC50 (NaV1.7) [nM] | inhibition at 1 hour, 6 µM (CYP3A4) [%] | IC50 (hNaV1.7) [nM] | IC50 (NaV1.5) [nM] | other results
O=C(O)CCNC(=O)c1cc(-c2cc(Cl)ccc2Oc2cc(F)c(S(=O)(=O)Nc3ncns3)cc2Cl)ccn1 [Compound 1, 3-(4-(2-(4-(N-(1,2,4-thiadiazol-5-yl)sulfamoyl)-2-chloro-5-fluorophenoxy)-5-chlorophenyl)picolinamido)propanoic acid] | < 100 | 50 to 100 | < 130 |  | reduction in pain response (formalin assay phase 2) ([1]; 75 mg/kg, oral route): 17%; reduction in pain response (formalin assay, phase 1) ([1]; 75 mg/kg, oral route): 14%; effect in the tactile allodynia test ([2]; 30 mg/kg intraperitoneal, measured 30-60 minutes post dose): no significant effect
O=C(O)CCNCCCc1cc(Cl)ccc1Oc1cc(F)c(S(=O)(=O)Nc2ncns2)cc1Cl [Compound 12, 3-((3-(2-(4-(N-(1,2,4-thiadiazol-5-yl)sulfamoyl)-2-chloro-5-fluorophenoxy)-5-chlorophenyl)propyl)amino)propanoic acid] | < 100 | 50 to 100 | < 130 |  | reduction in pain response (formalin assay phase 2) [1, 4]: 29-43%; reduction in pain response (formalin assay, phase 1) [1, 4]: 13-24%
O=C(O)CCNCCCc1cc(Cl)ccc1Oc1cc(F)c(S(=O)(=O)Nc2cscn2)cc1Cl [Compound 15, 3-((3-(5-chloro-2-(2-chloro-5-fluoro-4-(N-(thiazol-4-yl)sulfamoyl)phenoxy)phenyl)propyl)amino)propanoic acid] | < 100 | 0 to 25 | 130 to 1000 |  | effect in the tactile allodynia test [3]: no significant effect
O=C(O)CNCCCc1cc(Cl)ccc1Oc1cc(F)c(S(=O)(=O)Nc2cscn2)cc1F [Compound 21, 2-((3-(5-chloro-2-(2,5-difluoro-4-(N-(thiazol-4-yl)sulfamoyl)phenoxy)phenyl)propyl)amino)acetic acid] | 100 to 1000 | 0 to 25 | 1000 to 20000 |  | 
O=C(O)CCNCCCc1cc(Cl)ccc1Oc1cc(F)c(S(=O)(=O)Nc2cscn2)cc1F [Compound 22, 3-((3-(5-chloro-2-(2,5-difluoro-4-(N-(thiazol-4-yl)sulfamoyl)phenoxy)phenyl)propyl)amino)propanoic acid] | 100 to 1000 | 0 to 25 | 1000 to 20000 |  | 
O=C(O)C1CCN(CCCc2cc(Cl)ccc2Oc2cc(F)c(S(=O)(=O)Nc3ncns3)cc2Cl)CC1 [Compound 32, 1-(3-(2-(4-(N-(1,2,4-thiadiazol-5-yl)sulfamoyl)-2-chloro-5-fluorophenoxy)-5-chlorophenyl)propyl)piperidine-4-carboxylic acid] | < 100 | 50 to 100 | < 130 |  | 
CS(=O)(=O)CCNCCCc1cc(Cl)ccc1Oc1cc(F)c(S(=O)(=O)Nc2cscn2)cc1Cl [Compound 44, 5-chloro-4-(4-chloro-2-(3-((2-(methylsulfonyl)ethyl)amino)propyl)phenoxy)-2-fluoro-N-(thiazol-4-yl)benzenesulfonamide] | < 100 |  |  | > 10000 | 
C#CCN(CCCc1cc(Cl)ccc1Oc1cc(F)c(S(=O)(=O)Nc2nccs2)cc1Cl)CC(=O)O [Compound 54, 2-((3-(5-chloro-2-(2-chloro-5-fluoro-4-(N-(thiazol-2-yl)sulfamoyl)phenoxy)phenyl)propyl)(prop-2-yn-1-yl)amino)acetic acid] |  |  |  |  | effect in the tactile allodynia test ([2]; oral route, relative to vehicle control, measured 30 minutes post dose): no significant effect
O=S(=O)(Nc1nccs1)c1cc(Cl)c(Oc2ccccc2-c2cnn3c2NCCC3)cc1F [Compound 56, 5-chloro-2-fluoro-4-(2-(4,5,6,7-tetrahydropyrazolo[1,5-a]pyrimidin-3-yl)phenoxy)-N-(thiazol-2-yl)benzenesulfonamide] |  |  | 500 to 1000 | > 10000 | 
O=S(=O)(Nc1cscn1)c1cc(Cl)c(Oc2ccccc2-c2cnn3c2NCCC3)cc1F [Compound 58, 5-chloro-2-fluoro-4-(2-(4,5,6,7-tetrahydropyrazolo[1,5-a]pyrimidin-3-yl)phenoxy)-N-(thiazol-4-yl)benzenesulfonamide] | 1000 to 10000 |  | 1000 to 20000 | > 10000 | 
